Experiments:
[1] = biological target: NDM-1 (Klebsiella pneumoniae, UniProt C7C422); assay: biochemical; type: biochemical; details: CCF2-FA fluorescence assay, 2 hours at 25° C.
Outline: (§1)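 Metallo-β-lactamase activity read by fluorescence against CCF2-FA (1.25 μM final) in 100 mM KH2PO4 pH 7 with 0.005% Tween-20 and 10 μM ZnSO4; enzyme final at 1 pM NDM-1, 2 pM IMP-1 or 30 pM VIM-1. Inhibitor at 20 to 0.00063 μM, 2 h at 25° C; IC50 by 4-parameter fit.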

[2] = biological target: VIM-2 (Escherichia coli, UniProt Q5U7L7); assay: biochemical; details: CCF2-FA fluorescence assay; read-out: VIM2 IC50
[3] = test system: Klebsiella pneumoniae expressing VIM-1 (IHMA599644); type: cell-based; details: with imipenem 1 μg/ml; 95% inhibition of bacterial growth
Outline: (§2)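 Read-out is absorbance after 22–24 h at 35 °C, with MITC95 taken as the lowest inhibitor concentration that, alongside imipenem at 1 μg/ml, suppresses 95% of bacterial growth. Inocula came from saline-suspended colonies diluted 1:100 into 1.1× CAMHB.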

[4] = test system: Serratia marcescens expressing IMP-1 (CL5741); type: cell-based; details: with imipenem 1 μg/ml; 95% inhibition of bacterial growth
Outline: as §2

[5] = test system: Escherichia coli expressing NDM-1 (CLB30016); type: cell-based; details: with imipenem 1 μg/ml; 95% inhibition of bacterial growth
Outline: as §2

[6] = test system: P. aeruginosa MB9798 (efflux+, IMP-1 plasmid); details: for MB9798 MITC95 P. aeruginosa uM Efflux WT: efflux + (MB9798) strain, imipenem at 2 μg/mL, in the presence of a class A, C, D serine β-lactamase inhibitor closely related to relebactam; for Efflux ratio: fold difference between efflux+ (MB9798) and efflux− (MB9799) strains
Outline: (§3)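 Isogenic P. aeruginosa PAO1 strains (efflux+ and multiple-efflux-pump-disrupted) carrying plasmid IMP-1, with inducible AmpC, tested by broth microdilution. Imipenem and/or ceftazidime fixed, usually at CLSI breakpoint, plus fixed class A/C β-lactamase inhibitor; titrated MBL inhibitor concentration restoring susceptibility recorded and compared between strains as efflux fold difference.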

[7] = biological target: IMP-1 (Serratia marcescens, UniProt P52699); assay: biochemical; details: CCF2-FA fluorescence assay, 2 hours at 25° C.; read-out: IMP1 IC50
Outline: as §1

[8] = biological target: VIM-1 (Pseudomonas aeruginosa (strain ATCC 15692 / DSM 22644 / CIP 104116 / JCM 14847 / LMG 12228 / 1C / PRS 101 / PAO1), UniProt A0A0F7KYQ8); assay: biochemical; details: CCF2-FA fluorescence assay, 2 hours at 25° C.; read-out: VIM1 IC50
Outline: as §1

[9] = test system: P. aeruginosa MB9799 (efflux-, IMP-1 plasmid); type: cell-based, Pseudomonas aeruginosa; details: efflux − (MB9799) strain; imipenem at 2 μg/mL; in the presence of a class A, C, D serine β-lactamase inhibitor closely related to relebactam
Outline: as §3

Chain of NDM-1 (C7C422 whole entry, looked up, species assumed): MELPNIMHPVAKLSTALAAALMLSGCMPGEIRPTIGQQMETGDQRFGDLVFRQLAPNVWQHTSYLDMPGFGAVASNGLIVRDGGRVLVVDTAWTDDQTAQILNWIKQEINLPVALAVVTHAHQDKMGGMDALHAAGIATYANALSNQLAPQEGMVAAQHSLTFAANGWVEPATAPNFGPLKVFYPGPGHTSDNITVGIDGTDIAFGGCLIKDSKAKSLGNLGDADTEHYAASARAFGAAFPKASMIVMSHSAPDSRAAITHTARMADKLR
Chain of IMP-1 (P52699 whole entry, looked up, species assumed): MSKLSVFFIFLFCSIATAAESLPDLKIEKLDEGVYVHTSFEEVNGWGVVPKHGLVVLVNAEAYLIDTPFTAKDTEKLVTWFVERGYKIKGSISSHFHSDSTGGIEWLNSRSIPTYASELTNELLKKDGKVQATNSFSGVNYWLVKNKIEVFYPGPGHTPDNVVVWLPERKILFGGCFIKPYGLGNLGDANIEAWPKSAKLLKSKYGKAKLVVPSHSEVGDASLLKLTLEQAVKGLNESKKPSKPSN

With `NC[C@@H](O)CNS(=O)(=O)c1ccc(N2CCCN(CCO)CC2)c(-c2nn[nH]n2)c1S(N)(=O)=O` [Example 23, (R)-N^1-(3-amino-2-hydroxypropyl)-4-(4-(2-hydroxyethyl)-1,4-diazepan-1-yl)-3-(2H-tetrazol-5-yl)benzene-1,2-disulfonamide] the IC50 [1] was 19.7 nM, the IC50 [2] was 10 nM and the “IHMA599644 K. pneumoniae MITC95 VIM” value [3] was 0.78 µM. The “CL5741 S. marcescens MITC95 IMP” value [4] was 1.56 µM, the “CLB30016 E. coli MITC95 NDM” value [5] was 0.39 µM and the “MB9798 MITC95 P. aeruginosa uM Efflux WT” value [6] was 3.13 µM. For the same compound, the Efflux ratio [6] was 2.00, the IC50 [7] was 40.5 nM and the IC50 [8] was 1.48 nM. For the same compound, the “MB9799 MITC95 P. aeruginosa uM Efflux Mutant” value [9] was 1.56 µM.
`NS(=O)(=O)c1c(S(=O)(=O)N[C@@H]2CCNC2)ccc(N2CCN(CCO)CC2)c1-c1nn[nH]n1` [Example 162, (R)-4-(4-(2-hydroxyethyl)piperazin-1-yl)-N1-(pyrrolidin-3-yl)-3-(2H-tetrazol-5-yl)benzene-1,2-disulfonamide] was tested, and the IC50 [1] was 1.2 nM, the IC50 [2] was 6.33 nM and the “IHMA599644 K. pneumoniae MITC95 VIM” value [3] was 1.95 µM. The “CL5741 S. marcescens MITC95 IMP” value [4] was 0.20 µM, the “CLB30016 E. coli MITC95 NDM” value [5] was 0.29 µM and the “MB9798 MITC95 P. aeruginosa uM Efflux WT” value [6] was 2.34 µM. For the same compound, the IC50 [7] was 2.17 nM, the IC50 [8] was 2.45 nM and the “MB9799 MITC95 P. aeruginosa uM Efflux Mutant” value [9] was 1.17 µM.
With `NC[C@H]1CCCN(c2ccc(S(=O)(=O)N[C@@H]3CCNC3)c(S(N)(=O)=O)c2-c2nnn[nH]2)C1` [Example 82, 4-[(3R)-3-(aminomethyl)piperidin-1-yl]-N1-[(3R)-pyrrolidin-3-yl]-3-(1H-tetrazol-5-yl)benzene-1,2-disulfonamide] the IC50 [1] was 42.9 nM, the IC50 [2] was 9.33 nM and the “IHMA599644 K. pneumoniae MITC95 VIM” value [3] was 0.78 µM. The “CL5741 S. marcescens MITC95 IMP” value [4] was 0.78 µM, the “CLB30016 E. coli MITC95 NDM” value [5] was 0.78 µM and the “MB9798 MITC95 P. aeruginosa uM Efflux WT” value [6] was 6.25 µM. The Efflux ratio [6] was 2.00, the IC50 [7] was 45.6 nM and the IC50 [8] was 0.9 nM. The “MB9799 MITC95 P. aeruginosa uM Efflux Mutant” value [9] was 3.13 µM.
`NC/C=C1\CCCN(c2ccc(S(=O)(=O)NC[C@H](O)CN)c(S(N)(=O)=O)c2-c2nn[nH]n2)C1` (single isomer, unassigned; isomer b) [Example 206] was tested, and the IC50 [1] was 9.21 nM, the IC50 [2] was 1.52 nM and the “IHMA599644 K. pneumoniae MITC95 VIM” value [3] was 1.56 µM. The “CL5741 S. marcescens MITC95 IMP” value [4] was 1.56 µM, the “CLB30016 E. coli MITC95 NDM” value [5] was 0.78 µM and the “MB9798 MITC95 P. aeruginosa uM Efflux WT” value [6] was 6.25 µM. It also gave an Efflux ratio [6] of 4.00, an IC50 [7] of 15.1 nM and an IC50 [8] of 0.23 nM. For the same compound, the “MB9799 MITC95 P. aeruginosa uM Efflux Mutant” value [9] was 1.56 µM.
With `NS(=O)(=O)c1c(S(=O)(=O)C2CNC2)ccc(N2CC3C(CO)C3C2)c1-c1nnn[nH]1` (stereo not shown) [Example 62, 6-(azetidin-3-ylsulfonyl)-3-[6-(hydroxymethyl)-3-azabicyclo[3.1.0]hex-3-yl]-2-(1H-tetrazol-5-yl)benzenesulfonamide] the IC50 [1] was 2.86 nM, the IC50 [2] was 10.5 nM and the “IHMA599644 K. pneumoniae MITC95 VIM” value [3] was 6.25 µM. For the same compound, the “CL5741 S. marcescens MITC95 IMP” value [4] was 3.13 µM, the “CLB30016 E. coli MITC95 NDM” value [5] was 1.56 µM and the “MB9798 MITC95 P. aeruginosa uM Efflux WT” value [6] was 50.00 µM. For the same compound, the Efflux ratio [6] was 31.99, the IC50 [7] was 4.89 nM and the IC50 [8] was 3.07 nM. The “MB9799 MITC95 P. aeruginosa uM Efflux Mutant” value [9] was 1.56 µM.
`NCC1CCN(c2ccc(S(=O)(=O)N[C@@H]3CCNC3)c(S(N)(=O)=O)c2-c2nnn[nH]2)CC1` [Example 77, 4-[4-(aminomethyl)piperidin-1-yl]-N1-[(3R)-pyrrolidin-3-yl]-3-(1H-tetrazol-5-yl)benzene-1,2-disulfonamide] was tested, and the IC50 [1] was 0.53 nM, the IC50 [2] was 1.8 nM and the “IHMA599644 K. pneumoniae MITC95 VIM” value [3] was 0.78 µM. For the same compound, the “CL5741 S. marcescens MITC95 IMP” value [4] was 0.78 µM, the “CLB30016 E. coli MITC95 NDM” value [5] was 0.78 µM and the “MB9798 MITC95 P. aeruginosa uM Efflux WT” value [6] was 0.78 µM. The Efflux ratio [6] was 2.00, the IC50 [7] was 1.83 nM and the IC50 [8] was 0.11 nM. The “MB9799 MITC95 P. aeruginosa uM Efflux Mutant” value [9] was 0.39 µM.
With `NCCOCC1CCN(c2ccc(S(=O)(=O)NC[C@H](O)CN)c(S(N)(=O)=O)c2-c2nn[nH]n2)CC1` [Example 208] the IC50 [1] was 1.05 nM, the IC50 [2] was 1.19 nM and the “IHMA599644 K. pneumoniae MITC95 VIM” value [3] was 3.13 µM. The “CL5741 S. marcescens MITC95 IMP” value [4] was 0.78 µM, the “CLB30016 E. coli MITC95 NDM” value [5] was 1.56 µM and the “MB9798 MITC95 P. aeruginosa uM Efflux WT” value [6] was 0.78 µM. For the same compound, the Efflux ratio [6] was 1.00, the IC50 [7] was 1.84 nM and the IC50 [8] was 0.11 nM. The “MB9799 MITC95 P. aeruginosa uM Efflux Mutant” value [9] was 0.78 µM.
In the case of `C[C@@H](CN)NS(=O)(=O)c1ccc(N2CCC(O)(CN)CC2)c(-c2nn[nH]n2)c1S(N)(=O)=O` [Example 18, (S)-4-(4-(aminomethyl)-4-hydroxypiperidin-1-yl)-N1-(1-aminopropan-2-yl)-3-(2H-tetrazol-5-yl)benzene-1,2-disulfonamide], the IC50 [1] is reported as 0.43 nM, the IC50 [2] is reported as 4.8 nM and the “IHMA599644 K. pneumoniae MITC95 VIM” value [3] is reported as 1.56 µM. For the same compound, the “CL5741 S. marcescens MITC95 IMP” value [4] was 0.78 µM, the “CLB30016 E. coli MITC95 NDM” value [5] was 0.78 µM and the “MB9798 MITC95 P. aeruginosa uM Efflux WT” value [6] was 0.78 µM. For the same compound, the Efflux ratio [6] was 1.00, the IC50 [7] was 1.48 nM and the IC50 [8] was 0.65 nM. The “MB9799 MITC95 P. aeruginosa uM Efflux Mutant” value [9] was 0.78 µM.
For `NS(=O)(=O)c1c(S(=O)(=O)N[C@@H]2CCNC2)ccc(N2CC[C@@H](O)C2)c1-c1nnn[nH]1` [Example 99, 4-[(3R)-3-hydroxypyrrolidin-1-yl]-N1-[(3R)-pyrrolidin-3-yl]-3-(1H-tetrazol-5-yl)benzene-1,2-disulfonamide], the IC50 [1] was 0.92 nM, the IC50 [2] was 3.22 nM and the “IHMA599644 K. pneumoniae MITC95 VIM” value [3] was 6.25 µM. The “CL5741 S. marcescens MITC95 IMP” value [4] was 3.13 µM, the “CLB30016 E. coli MITC95 NDM” value [5] was 1.56 µM and the “MB9798 MITC95 P. aeruginosa uM Efflux WT” value [6] was 3.13 µM. The Efflux ratio [6] was 1.00, the IC50 [7] was 1.33 nM and the IC50 [8] was 2.66 nM. The “MB9799 MITC95 P. aeruginosa uM Efflux Mutant” value [9] was 3.13 µM.
For `NCC1CCN(c2ccc(S(=O)(=O)N[C@@H](CN)CO)c(S(N)(=O)=O)c2-c2nn[nH]n2)CC1` [Example 189, (S)-N1-(1-amino-3-hydroxypropan-2-yl)-4-(4-(aminomethyl)piperidin-1-yl)-3-(2H-tetrazol-5-yl)benzene-1,2-disulfonamide], the IC50 [1] was 0.3 nM, the IC50 [2] was 2.31 nM and the “IHMA599644 K. pneumoniae MITC95 VIM” value [3] was 0.78 µM. The “CL5741 S. marcescens MITC95 IMP” value [4] was 0.78 µM, the “CLB30016 E. coli MITC95 NDM” value [5] was 0.39 µM and the “MB9798 MITC95 P. aeruginosa uM Efflux WT” value [6] was 0.78 µM. It also gave an Efflux ratio [6] of 2.00, an IC50 [7] of 0.77 nM and an IC50 [8] of 0.06 nM. The “MB9799 MITC95 P. aeruginosa uM Efflux Mutant” value [9] was 0.39 µM.
`NS(=O)(=O)c1c(S(=O)(=O)N[C@@H]2CCNC2)ccc(N2CCC(C(F)F)CC2)c1-c1nnn[nH]1` [Example 90, 4-[4-(difluoromethyl)piperidin-1-yl]-N1-[(3R)-pyrrolidin-3-yl]-3-(1H-tetrazol-5-yl)benzene-1,2-disulfonamide] was tested, and the IC50 [1] was 0.43 nM, the IC50 [2] was 1.02 nM and the “IHMA599644 K. pneumoniae MITC95 VIM” value [3] was 3.13 µM. For the same compound, the “CL5741 S. marcescens MITC95 IMP” value [4] was 3.13 µM, the “CLB30016 E. coli MITC95 NDM” value [5] was 3.13 µM and the “MB9798 MITC95 P. aeruginosa uM Efflux WT” value [6] was 6.25 µM. It also gave an Efflux ratio [6] of 4.00, an IC50 [7] of 0.77 nM and an IC50 [8] of 0.34 nM. The “MB9799 MITC95 P. aeruginosa uM Efflux Mutant” value [9] was 1.56 µM.
